Results: patent US11420944B2, “Voltage-dependent t-type calcium channel blocker” (Nippon Chemiphar Co., Ltd., priority 2016, dated 2022)

Target: T1, human Cav3.2 channels (Homo sapiens, UniProt O95180)
T1 construct: expressed in transfected cells; host or cells: HEK293 cells (ATCC No. CRL-1573), plasmid pcDNA3.1(+)
Experiment: Intracellular calcium concentration measurement (Fluo-4 AM) in stable cells expressing human Cav3.2 channels, buffer A / buffer B
Format: cell-based
Settings: Tables 2 to 6; buffer A, equilibrium potential of potassium −92 mV; read-out: Inhibitory action of buffer A (inactivated state)
Outline: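 HEK293 cells stably expressing human Cav3.2, Fluo-4 loaded, preincubated 15 min at room temperature with compound (0.1% DMSO final) in buffer A (K+ equilibrium −92 mV) or B (−110 mV). After ionophore, KCl (83.8 or 91.8 mM) stimulus; 10 s fluorescence rise (ex 485/em 510 nm) gave % inhibition and IC50.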

T1 sequence (O95180 whole entry): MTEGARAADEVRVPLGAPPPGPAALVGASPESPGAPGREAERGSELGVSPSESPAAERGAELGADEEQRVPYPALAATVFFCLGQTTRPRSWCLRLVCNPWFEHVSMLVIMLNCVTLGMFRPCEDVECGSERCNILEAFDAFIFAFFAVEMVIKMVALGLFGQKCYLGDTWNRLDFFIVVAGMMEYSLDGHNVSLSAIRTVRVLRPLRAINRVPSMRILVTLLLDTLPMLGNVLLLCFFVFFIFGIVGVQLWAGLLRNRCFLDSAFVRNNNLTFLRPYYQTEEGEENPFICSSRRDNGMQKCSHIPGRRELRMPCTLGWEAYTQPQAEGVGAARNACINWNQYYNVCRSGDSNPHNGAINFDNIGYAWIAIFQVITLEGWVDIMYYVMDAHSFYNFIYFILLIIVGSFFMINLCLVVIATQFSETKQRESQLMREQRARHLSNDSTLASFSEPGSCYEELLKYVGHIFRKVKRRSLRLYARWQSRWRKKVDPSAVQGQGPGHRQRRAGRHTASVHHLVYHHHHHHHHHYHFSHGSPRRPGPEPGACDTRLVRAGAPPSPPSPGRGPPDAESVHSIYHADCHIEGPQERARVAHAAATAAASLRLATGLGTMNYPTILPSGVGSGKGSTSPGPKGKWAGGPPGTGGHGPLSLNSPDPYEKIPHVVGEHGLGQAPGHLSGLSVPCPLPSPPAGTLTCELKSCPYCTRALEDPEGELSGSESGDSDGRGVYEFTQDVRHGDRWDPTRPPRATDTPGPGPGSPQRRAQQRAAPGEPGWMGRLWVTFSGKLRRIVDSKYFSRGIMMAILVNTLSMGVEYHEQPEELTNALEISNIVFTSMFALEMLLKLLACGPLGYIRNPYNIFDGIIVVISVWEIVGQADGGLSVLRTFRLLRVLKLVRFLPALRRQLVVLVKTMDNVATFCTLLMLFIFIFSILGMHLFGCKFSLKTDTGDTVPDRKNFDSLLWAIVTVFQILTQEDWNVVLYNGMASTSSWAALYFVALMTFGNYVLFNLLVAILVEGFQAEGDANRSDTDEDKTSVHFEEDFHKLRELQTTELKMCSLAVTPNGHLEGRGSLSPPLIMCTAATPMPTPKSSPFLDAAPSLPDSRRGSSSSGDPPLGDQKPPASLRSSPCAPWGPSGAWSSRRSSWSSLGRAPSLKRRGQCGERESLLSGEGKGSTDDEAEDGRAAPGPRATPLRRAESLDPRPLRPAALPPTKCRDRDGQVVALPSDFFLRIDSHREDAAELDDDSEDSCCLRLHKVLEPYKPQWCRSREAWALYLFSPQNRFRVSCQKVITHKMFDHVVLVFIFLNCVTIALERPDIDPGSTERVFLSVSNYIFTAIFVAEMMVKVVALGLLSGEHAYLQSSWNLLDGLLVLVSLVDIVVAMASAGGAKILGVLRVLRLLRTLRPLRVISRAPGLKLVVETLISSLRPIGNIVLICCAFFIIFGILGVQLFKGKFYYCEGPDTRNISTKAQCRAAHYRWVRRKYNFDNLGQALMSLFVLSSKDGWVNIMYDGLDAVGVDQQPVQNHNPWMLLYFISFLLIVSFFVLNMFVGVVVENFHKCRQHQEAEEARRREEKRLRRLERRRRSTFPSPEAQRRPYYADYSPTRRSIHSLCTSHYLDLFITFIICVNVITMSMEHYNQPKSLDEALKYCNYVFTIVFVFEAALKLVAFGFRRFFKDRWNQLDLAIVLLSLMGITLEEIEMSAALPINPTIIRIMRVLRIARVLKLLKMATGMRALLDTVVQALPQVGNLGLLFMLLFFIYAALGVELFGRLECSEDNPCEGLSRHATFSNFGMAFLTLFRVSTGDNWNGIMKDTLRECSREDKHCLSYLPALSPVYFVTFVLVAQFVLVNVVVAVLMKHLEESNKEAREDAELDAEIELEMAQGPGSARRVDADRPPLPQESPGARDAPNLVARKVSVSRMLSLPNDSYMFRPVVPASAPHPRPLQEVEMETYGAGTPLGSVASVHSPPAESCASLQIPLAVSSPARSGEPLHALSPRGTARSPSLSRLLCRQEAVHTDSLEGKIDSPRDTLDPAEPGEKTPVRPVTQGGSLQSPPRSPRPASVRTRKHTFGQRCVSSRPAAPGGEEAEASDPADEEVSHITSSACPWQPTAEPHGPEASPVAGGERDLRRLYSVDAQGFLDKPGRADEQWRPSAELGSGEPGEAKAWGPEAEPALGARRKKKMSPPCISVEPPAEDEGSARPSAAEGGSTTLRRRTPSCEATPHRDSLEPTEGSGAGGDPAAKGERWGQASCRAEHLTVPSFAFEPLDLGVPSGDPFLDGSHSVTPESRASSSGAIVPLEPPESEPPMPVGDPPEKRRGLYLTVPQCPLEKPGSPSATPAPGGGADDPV

Row | SMILES | IC50 [µM]
1 | C[C@@H](NC(=O)[C@H]1C[C@@H]1c1nc2ccccc2[nH]1)c1ccc(C(=O)N2CCC(F)(F)CC2)s1 [Example 94, (1S,2S)-2-(1H-benzo[d]imidazol-2-yl)-N—((R)-1-(5-(4,4-difluoropiperidine-1-carbonyl)thiophen-2-yl)ethyl)cyclopropane-1-carboxamide] | 0.1 to 1
2 | C[C@@H](NC(=O)[C@H]1C[C@@H]1c1nc2ccccc2[nH]1)c1ccc(C(=O)N2CCCC(F)C2)s1 (stereo partly drawn) [Example 95, (1S,2S)-2-(1H-benzo[d]imidazol-2-yl)-N-((1R)-1-(5-(3-fluoropiperidine-1-carbonyl)thiophen-2-yl)ethyl)cyclopropane-1-carboxamide] | 1 to 10
3 | C[C@@H](NC(=O)[C@H]1C[C@@H]1c1nc2ccccc2[nH]1)c1cc2cccc(F)c2o1 [Example 96, (1S,2S)-2-(1H-benzo[d]imidazol-2-yl)-N—((R)-1-(7-fluorobenzofuran-2-yl)ethyl)cyclopropane-1-carboxamide] | 0.1 to 1
4 | C[C@@H](NC(=O)[C@H]1C[C@@H]1c1nc2ccccc2[nH]1)c1cc2c(F)cccc2o1 [Example 97, (1S,2S)-2-(1H-benzo[d]imidazol-2-yl)-N—((R)-1-(4-fluorobenzofuran-2-yl)ethyl)cyclopropane-1-carboxamide] | 0.1 to 1
5 | CC(NC(=O)[C@H]1C[C@@H]1c1nc2ccccc2[nH]1)c1cc2cnccc2o1 (stereo partly drawn) [Example 99, (1S,2S)-2-(1H-benzo[d]imidazol-2-yl)-N-(1-(furo[3,2-c]pyridin-2-yl)ethyl)cyclopropane-1-carboxamide] | 1 to 10
6 | C[C@@H](NC(=O)[C@H]1C[C@@H]1c1nc2ccccc2[nH]1)c1cc2cc(C#N)ccc2o1 [Example 107, (1S,2S)-2-(1H-benzo[d]imidazol-2-yl)-N—((R)-1-(5-cyanobenzofuran-2-yl)ethyl)cyclopropane-1-carboxamide] | 0.1 to 1
7 | CCn1c([C@H]2C[C@@H]2C(=O)N[C@H](C)c2cc3ccc(F)cc3o2)nc2ccccc21 [Example 110, (1S,2S)-2-(1-ethyl-1H-benzo[d]imidazol-2-yl)-N—((R)-1-(6-fluorobenzofuran-2-yl)ethyl)cyclopropane-1-carboxamide] | ≤ 0.1
8 | O=C(NCc1cc2cc(F)ccc2o1)[C@H]1C[C@@H]1c1nc2ccccc2[nH]1 [Example 113, (1S,2S)-2-(1H-benzo[d]imidazol-2-yl)-N-((5-fluorobenzofuran-2-yl)methyl)cyclopropane-1-carboxamide] | ≤ 0.1
9 | CC(C)[C@H](NC(=O)[C@H]1C[C@@H]1c1nc2ccccc2[nH]1)c1ccc(C(F)(F)F)s1 [Example 115, (1S,2S)-2-(1H-benzo[d]imidazol-2-yl)-N—((S)-2-methyl-1-(5-(trifluoromethyl)thiophen-2-yl)propyl)cyclopropane-1-carboxamide] | 0.1 to 1
10 | C[C@@H](NC(=O)[C@H]1C[C@@H]1c1nc2cc(F)ccc2[nH]1)c1ccc(OCC(F)(F)F)s1 [Example 118, (1S,2S)-2-(5-fluoro-1H-benzo[d]imidazol-2-yl)-N—((R)-1-(5-(2,2,2-trifluoroethoxy)thiophen-2-yl)ethyl)cyclopropane-1-carboxamide] | ≤ 0.1
11 | C[C@@H](NC(=O)[C@H]1C[C@@H]1c1nc2ccccc2[nH]1)c1cc2ccc(F)cc2s1 [Example 119, (1S,2S)-2-(1H-benzo[d]imidazol-2-yl)-N—((R)-1-(6-fluorobenzo[b]thiophen-2-yl)ethyl)cyclopropane-1-carboxamide] | ≤ 0.1
12 | CC(C)[C@@H](NC(=O)[C@H]1C[C@@H]1c1nc2ccccc2[nH]1)c1cc2ccc(F)cc2s1 [Example 120, (1S,2S)-2-(1H-benzo[d]imidazol-2-yl)-N—((R)-1-(6-fluorobenzo[b]thiophen-2-yl)-2-methylpropyl)cyclopropane-1-carboxamide] | 0.1 to 1
13 | C[C@@H](NC(=O)[C@@H]1CCN(c2ccc(C(F)(F)F)cn2)C1)c1cc2cc(F)ccc2o1 [Example 121, (R)—N—((R)-1-(5-fluorobenzofuran-2-yl)ethyl)-1-(5-(trifluoromethyl)pyridin-2-yl)pyrrolidine-3-carboxamide] | > 10
